Measurements published in patent US20240124412A1, “IKAROS ZINC FINGER FAMILY DEGRADERS AND USES THEREOF” (Gilead Sciences, Inc., priority 2021, published 2024).

Experiments:
[1] = target: T1, IKZF2 (Homo sapiens, UniProt Q96SW2+Q9UKS7); experiment: HiBiT protein tagging assay, in vitro IKZF2 degradation (HEK293); type: cell-based; details: HEK293, 18-24 hr incubation, normalized to DMSO control; for Dmax: HEK293, HiBiT assay, read-out: IKZF2 Dmax (maximum degradation at the highest concentration tested); for DC50: read-out: IKZF2 EC50
T1 construct: expressed in transfected cells
Method: (§1) In vitro degradation of IKZF1 and IKZF2 was measured using HiBiT protein tagging and detection technology (Promega).
(§2) HiBiT technology (Promega) was used to develop the quantitative assays to measure the cellular IKZFs level by tagging an 11 amino acid HiBit peptides VSGWRLFKKIS (SEQ ID NO:1) to the protein of interest. Reporter plasmids were generated by fusing a linker sequence (GSSGGSSG; SEQ ID NO:2) followed by the HiBiT tag at the C terminus of IKZF1 and IKZF2. The fusion fragments were subsequently cloned into pcDNA5 pcDNA™5/FRT/TO plasmids (Thermo Fisher, cat #V652020) downstream of the Tetracycline operator. The resulting plasmids were co-transfected with pOG44 Flp-Recombinase Expression Vector (Thermo Fisher, cat #V600520) into Flp-In™ T-REx HEK293 line (Thermo Fisher, cat #R78077) and a stable cell pool was selected by adding 100 μg/ml of Hygromycin (Thermo Fisher, cat #10687010). The reporter cell enabled Tet-On inducible reporter expression from a single copy of the integrated gene.
(§3) On Day 1, Cells were grown to ˜80% confluency in TC medium (DMEM Glutamax (Gibco10569), 10% Tet free FBS (Takara 631106), and PenStrep Glutamin (Gibco 10378)) in tissue culture flasks. Doxycycline was then added to a final concentration of 1 μg/ml to induce reporter expression at 37° C. overnight.
(§4) On Day 2, 125 nL of serially-diluted solution of testing compounds were dispensed into 384-well white solid assay plates via ECHO acoustic liquid handler. Cells were lifted by 0.25% Trypsin (Gibco 25200) then pelleted by centrifugation (Beckman Avanti J-E) at 500×g for 5 min. Cell pellets were resuspended in TC medium at the concentration of 3e5/mL and 25 μL of cell suspension were added into each well of compound-spotted plates. The plates were returned to a 37° C. incubator overnight (18-24 hr).
(§5) On Day 3, assay plates were removed from the TC incubator and 25 μL of Nano-Glo lytic detection system (Promega, cat #N3030) was added to each well. Plates were incubated at r.t. for 3 min with shaking, and luminescence was read using an Envision reader (Perkin Elmer).
(§6) All raw data was normalized to DMSO control (final concentration: 0.5%) wells as POC and plotted out for EC50 and Dmax (Maximum degradation at the highest concentration tested in the assay).

[2] = target: T2, IKZF1 (Homo sapiens, UniProt Q13422+Q96SW2); experiment: HiBiT protein tagging assay, in vitro IKZF1 degradation (HEK293); type: cell-based; details: HEK293, 18-24 hr incubation, normalized to DMSO control; for Dmax: read-out: IKZF1 Dmax (maximum degradation at the highest concentration tested); for DC50: read-out: IKZF1 EC50
T2 construct: expressed in transfected cells
Method: as §1, §2, §3, §4, §5, §6

T2 sequence (Q13422 whole entry): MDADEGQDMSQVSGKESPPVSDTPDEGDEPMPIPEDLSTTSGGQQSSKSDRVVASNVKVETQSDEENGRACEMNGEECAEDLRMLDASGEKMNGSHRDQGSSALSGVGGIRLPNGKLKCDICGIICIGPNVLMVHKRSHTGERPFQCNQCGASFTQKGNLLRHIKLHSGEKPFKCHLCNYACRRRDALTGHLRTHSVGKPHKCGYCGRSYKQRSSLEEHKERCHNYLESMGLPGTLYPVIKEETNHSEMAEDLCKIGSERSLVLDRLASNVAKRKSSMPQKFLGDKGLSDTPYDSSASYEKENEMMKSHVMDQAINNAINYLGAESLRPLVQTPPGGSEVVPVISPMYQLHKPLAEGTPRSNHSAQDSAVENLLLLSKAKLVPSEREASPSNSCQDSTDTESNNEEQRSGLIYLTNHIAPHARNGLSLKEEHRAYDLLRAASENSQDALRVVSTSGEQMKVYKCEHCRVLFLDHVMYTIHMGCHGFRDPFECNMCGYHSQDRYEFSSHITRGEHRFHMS
T2 sequence (Q96SW2 whole entry): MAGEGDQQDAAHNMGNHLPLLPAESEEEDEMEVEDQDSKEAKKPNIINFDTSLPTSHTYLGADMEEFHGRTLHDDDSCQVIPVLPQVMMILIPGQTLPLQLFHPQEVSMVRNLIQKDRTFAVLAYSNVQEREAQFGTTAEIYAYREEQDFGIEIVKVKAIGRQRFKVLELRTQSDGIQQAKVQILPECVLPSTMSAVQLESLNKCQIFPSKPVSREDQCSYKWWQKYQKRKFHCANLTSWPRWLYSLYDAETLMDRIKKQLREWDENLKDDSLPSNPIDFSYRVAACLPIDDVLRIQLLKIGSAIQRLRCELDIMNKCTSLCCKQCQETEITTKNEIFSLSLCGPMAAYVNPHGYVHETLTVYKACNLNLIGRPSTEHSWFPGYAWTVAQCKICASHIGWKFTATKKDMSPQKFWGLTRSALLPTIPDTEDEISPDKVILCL
T2 sequence (Q16531 whole entry partner): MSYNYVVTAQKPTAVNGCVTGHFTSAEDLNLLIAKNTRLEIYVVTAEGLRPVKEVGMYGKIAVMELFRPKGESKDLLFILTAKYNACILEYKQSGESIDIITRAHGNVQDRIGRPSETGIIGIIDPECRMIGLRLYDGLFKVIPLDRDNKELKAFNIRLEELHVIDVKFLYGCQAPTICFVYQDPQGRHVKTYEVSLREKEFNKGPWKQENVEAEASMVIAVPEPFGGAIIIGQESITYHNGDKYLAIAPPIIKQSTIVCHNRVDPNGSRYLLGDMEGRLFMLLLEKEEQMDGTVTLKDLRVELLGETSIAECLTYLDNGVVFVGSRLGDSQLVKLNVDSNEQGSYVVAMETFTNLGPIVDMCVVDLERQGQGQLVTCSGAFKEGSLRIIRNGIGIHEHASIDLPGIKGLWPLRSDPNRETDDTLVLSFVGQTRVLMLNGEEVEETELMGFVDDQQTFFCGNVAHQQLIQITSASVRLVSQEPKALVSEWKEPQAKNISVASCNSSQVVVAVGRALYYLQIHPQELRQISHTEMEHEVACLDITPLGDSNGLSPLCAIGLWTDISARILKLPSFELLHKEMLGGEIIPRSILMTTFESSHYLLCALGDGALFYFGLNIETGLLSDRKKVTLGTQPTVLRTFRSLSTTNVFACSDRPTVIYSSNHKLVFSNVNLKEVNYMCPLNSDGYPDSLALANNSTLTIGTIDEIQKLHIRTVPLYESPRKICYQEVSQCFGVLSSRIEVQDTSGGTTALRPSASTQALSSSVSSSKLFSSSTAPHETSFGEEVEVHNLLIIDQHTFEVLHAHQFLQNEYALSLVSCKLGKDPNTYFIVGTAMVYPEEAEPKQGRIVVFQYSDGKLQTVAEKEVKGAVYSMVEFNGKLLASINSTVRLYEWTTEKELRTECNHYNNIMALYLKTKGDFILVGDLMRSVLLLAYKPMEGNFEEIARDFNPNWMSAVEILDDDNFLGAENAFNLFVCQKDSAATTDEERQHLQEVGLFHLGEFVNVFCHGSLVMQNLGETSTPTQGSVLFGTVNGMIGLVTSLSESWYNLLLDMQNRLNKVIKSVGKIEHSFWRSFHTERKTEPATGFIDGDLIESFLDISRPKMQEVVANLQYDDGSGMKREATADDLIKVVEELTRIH
T1 sequence (Q9UKS7 1-500 isoform Q9UKS7-2): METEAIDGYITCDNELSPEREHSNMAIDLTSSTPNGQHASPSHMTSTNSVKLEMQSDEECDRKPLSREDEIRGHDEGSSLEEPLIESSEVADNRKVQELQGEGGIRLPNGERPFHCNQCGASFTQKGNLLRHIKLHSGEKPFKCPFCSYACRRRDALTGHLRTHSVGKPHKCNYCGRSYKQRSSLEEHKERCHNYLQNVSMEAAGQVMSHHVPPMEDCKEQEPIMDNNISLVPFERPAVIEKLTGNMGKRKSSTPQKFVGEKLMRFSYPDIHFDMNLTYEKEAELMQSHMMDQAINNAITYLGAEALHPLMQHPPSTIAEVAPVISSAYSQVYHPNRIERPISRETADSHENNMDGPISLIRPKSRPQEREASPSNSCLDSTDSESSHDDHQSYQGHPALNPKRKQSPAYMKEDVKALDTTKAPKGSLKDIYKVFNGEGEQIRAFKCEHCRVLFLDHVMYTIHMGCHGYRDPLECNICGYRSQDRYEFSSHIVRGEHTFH
T1 sequence (Q96SW2 whole entry): as the sequence (Q96SW2 whole entry) above
T1 sequence (Q16531 whole entry partner): as the sequence (Q16531 whole entry partner) above

| SMILES | Dmax [1] [%] | DC50 ([1]; HiBiT assay) [nM] | Dmax [2] [%] | DC50 [2] [nM] | IKZF2 Dmax (maximum degradation at the highest concentration tested) ([1]; HiBiT assay) [%] | IKZF1 Dmax (maximum degradation at the highest concentration tested) [2] [%] |
| --- | --- | --- | --- | --- | --- | --- |
| C[C@H]1CC[C@H](NCc2ccc3c(c2)CN(C2CCC(=O)NC2=O)C3=O)CC1 (stereo partly drawn) [Example 47] | 82 | 182 | 41 | 189 | – | – |
| CCN1CCC(NCc2ccc3c(c2)CN(C2CCC(=O)NC2=O)C3=O)CC1 (stereo not drawn) [Example 48, 3-(5-(((1-Ethylpiperidin-4-yl)amino)methyl)-1-oxoisoindolin-2-yl)piperidine-2,6-dione] | 32 | 2800 | 25 | 655 | – | – |
| O=C1CCC(N2Cc3cc(CNC4CCCC(c5ccccc5)C4)ccc3C2=O)C(=O)N1 (stereo not drawn) [Example 50] | 51 | 166 | 30 | 47 | – | – |
| C[C@H](CO)NCc1ccc2c(c1)CN(C1CCC(=O)NC1=O)C2=O (stereo partly drawn) [Example 51, 3-[5-[[[(1R)-2-hydroxy-1-methyl-ethyl]amino]methyl]-1-oxo-isoindolin-2-yl]piperidine-2,6-dione] | 17 | 1200 | 36 | 263 | – | – |
| O=C1CCC(N2Cc3cc(CN[C@H](CO)c4ccccc4)ccc3C2=O)C(=O)N1 (stereo partly drawn) [Example 52] | 22 | 472 | – | > 10000 | – | – |
| C[C@@H](CO)NCc1ccc2c(c1)CN(C1CCC(=O)NC1=O)C2=O (stereo partly drawn) [Example 53] | 20 | 460 | 24 | 289 | – | – |
| O=C1CCC(N2Cc3cc(CN[C@H]4C[C@@H](O)C4)ccc3C2=O)C(=O)N1 (stereo partly drawn) [Example 54] | 33 | 2800 | 28 | 367 | – | – |
| O=C1CCC(N2Cc3cc(CNCCCO)ccc3C2=O)C(=O)N1 (stereo not drawn) [Example 55] | 20 | 1300 | 36 | 394 | – | – |
| O=C1CCC(N2Cc3cc(CN[C@H](CO)Cc4ccccc4)ccc3C2=O)C(=O)N1 (stereo partly drawn) [Example 56] | 22 | 525 | 23 | 222 | – | – |
| O=C1CCC(N2Cc3cc(CNC4CCN(C(=O)c5ccccc5)CC4)ccc3C2=O)C(=O)N1 (stereo not drawn) [Example 57] | 96 | 1300 | 77 | 246 | – | – |
| O=C1CCC(N2Cc3cc(CNC4CCC5(CC4)CC5)ccc3C2=O)C(=O)N1 (stereo not drawn) [Example 58] | 81 | 67 | 66 | 50 | – | – |
| O=C1CCC(N2Cc3cc(CNC4CCC5(CCC5)CC4)ccc3C2=O)C(=O)N1 (stereo not drawn) [Example 59] | 74 | 55 | 62 | 50 | – | – |
| O=C1CCC(N2Cc3cc(CNC4CCC5(CC4)COC5)ccc3C2=O)C(=O)N1 (stereo not drawn) [Example 60] | 84 | 401 | 55 | 403 | – | – |
| O=C1CCC(N2Cc3cc(CNC4CCN(Cc5ccccc5)C(=O)C4)ccc3C2=O)C(=O)N1 (stereo not drawn) [Example 61] | 29 | 1400 | 27 | – | – | – |
| O=C1CCC(N2Cc3cc(CNC4CCN(Cc5ccccc5)C(=O)C4)ccc3C2=O)C(=O)N1 (stereo not drawn) [Example 62] | – | 1700 | – | 886 | 27 | 27 |
| N#CC[C@H]1CC[C@H](NCc2ccc3c(c2)CN(C2CCC(=O)NC2=O)C3=O)CC1 (stereo partly drawn) [Example 63] | 91 | 361 | 44 | 609 | – | – |
| O=C1CCC(N2Cc3cc(CNCc4cc5ccccc5[nH]4)ccc3C2=O)C(=O)N1 (stereo not drawn) [Example 64] | 45 | 276 | 80 | 61 | – | – |

| SMILES | Dmax [1] [%] | DC50 ([1]; HiBiT assay) [nM] | Dmax [2] [%] | DC50 [2] [nM] | IKZF2 Dmax (maximum degradation at the highest concentration tested) ([1]; HiBiT assay) [%] | IKZF1 Dmax (maximum degradation at the highest concentration tested) [2] [%] |
| --- | --- | --- | --- | --- | --- | --- |
| O=C1CCC(N2Cc3cc(CN[C@H]4CC[C@](O)(c5ccccc5)CC4)ccc3C2=O)C(=O)N1 (stereo partly drawn) [Example 65] | 90 | 67 | 86 | 29 | – | – |
| O=C1CCC(N2Cc3cc(CN[C@H]4CC[C@@](O)(c5ccccc5)CC4)ccc3C2=O)C(=O)N1 (stereo partly drawn) [Example 66] | 83 | 319 | 77 | 102 | – | – |
| O=C1CCC(N2Cc3cc(CN[C@@H]4CCCC[C@H]4Cc4ccccc4)ccc3C2=O)C(=O)N1 (stereo partly drawn) [Example 67] | 75 | 160 | 73 | 46 | – | – |
| O=C1CCC(N2Cc3cc(CN[C@@H]4CCCC[C@@H]4Cc4ccccc4)ccc3C2=O)C(=O)N1 (stereo partly drawn) [Example 68] | 68 | 154 | 68 | 70 | – | – |
| O=C1CCC(N2Cc3cc(CNC4CCC(Cc5ccccc5)C4)ccc3C2=O)C(=O)N1 (stereo not drawn) [Example 69] | 68 | 113 | 57 | 66 | – | – |
| O=C1CCC(N2Cc3cc(CNC4CCc5cccnc5C4)ccc3C2=O)C(=O)N1 (stereo not drawn) [Example 70, 3-(1-oxo-5-(((5,6,7,8-tetrahydroquinolin-7-yl)amino)methyl)isoindolin-2-yl)piperidine-2,6-dione] | 67 | 303 | 42 | 89 | – | – |
| O=C1CCC(N2Cc3cc(CN[C@@H]4C[C@@H]5CC[C@H]4C5)ccc3C2=O)C(=O)N1 (stereo partly drawn) [Example 71, 3-(5-((((1S,2R,4R)-bicyclo[2.2.1]heptan-2-yl)amino)methyl)-1-oxoisoindolin-2-yl)piperidine-2,6-dione] | 36 | 297 | 33 | 170 | – | – |
| O=C1CCC(N2Cc3cc(CN[C@H]4C[C@H]5CC[C@@H]4C5)ccc3C2=O)C(=O)N1 (stereo partly drawn) [Example 72] | 23 | 389 | – | > 10000 | – | – |
| O=C1CCC(N2Cc3cc(CN[C@@H]4CCCC[C@H]4CO)ccc3C2=O)C(=O)N1 (stereo partly drawn) [Example 73, 3-(5-((((1R,2R)-2-(hydroxymethyl)cyclohexyl)amino)methyl)-1-oxoisoindolin-2-yl)piperidine-2,6-dione] | 31 | 1200 | 34 | 5800 | – | – |
| O=C1CCC(N2Cc3cc(CNC4CC5CC(C5)C4)ccc3C2=O)C(=O)N1 (stereo not drawn) [Example 74] | 82 | 48 | 53 | 52 | – | – |
| CCCO[C@H]1CC[C@H](NCc2ccc3c(c2)CN(C2CCC(=O)NC2=O)C3=O)CC1 (stereo partly drawn) [Example 75] | 90 | 100 | 49 | 127 | – | – |
| CO[C@H]1CC[C@H](NCc2ccc3c(c2)CN(C2CCC(=O)NC2=O)C3=O)CC1 (stereo partly drawn) [Example 76] | 90 | 144 | 51 | 184 | – | – |
| O=C1CCC(N2Cc3cc(CN[C@H]4CC[C@H](C(F)(F)F)CC4)ccc3C2=O)C(=O)N1 (stereo partly drawn) [Example 77] | 74 | 171 | 59 | 144 | – | – |
| C[C@H]1CCCC[C@H]1NCc1ccc2c(c1)CN(C1CCC(=O)NC1=O)C2=O (stereo partly drawn) [Example 78] | 81 | 115 | 30 | 1700 | – | – |
| CCCC[C@H]1CC[C@H](NCc2ccc3c(c2)CN(C2CCC(=O)NC2=O)C3=O)CC1 (stereo partly drawn) [Example 79] | 69 | 218 | 30 | 169 | – | – |
| N#C[C@H]1CC[C@H](NCc2ccc3c(c2)CN(C2CCC(=O)NC2=O)C3=O)CC1 (stereo partly drawn) [Example 80] | 92 | 166 | 57 | 253 | – | – |
